# Source: PMC1971073, “Comparative genomics of bacterial and plant folate synthesis and salvage: predictions and validations” (BMC Genomics, 2007)
# Molecular target: T1, Arabidopsis ADCS (PabAa-PabAb) (Arabidopsis thaliana, UniProt Q8LPN3)
# T1 construct: bifunctional PabAa-PabAb ADC synthase in pLOI707HE; extract of E. coli BN1163 (pabA pabB mutant)
# T1 sequence (Q8LPN3 46-919): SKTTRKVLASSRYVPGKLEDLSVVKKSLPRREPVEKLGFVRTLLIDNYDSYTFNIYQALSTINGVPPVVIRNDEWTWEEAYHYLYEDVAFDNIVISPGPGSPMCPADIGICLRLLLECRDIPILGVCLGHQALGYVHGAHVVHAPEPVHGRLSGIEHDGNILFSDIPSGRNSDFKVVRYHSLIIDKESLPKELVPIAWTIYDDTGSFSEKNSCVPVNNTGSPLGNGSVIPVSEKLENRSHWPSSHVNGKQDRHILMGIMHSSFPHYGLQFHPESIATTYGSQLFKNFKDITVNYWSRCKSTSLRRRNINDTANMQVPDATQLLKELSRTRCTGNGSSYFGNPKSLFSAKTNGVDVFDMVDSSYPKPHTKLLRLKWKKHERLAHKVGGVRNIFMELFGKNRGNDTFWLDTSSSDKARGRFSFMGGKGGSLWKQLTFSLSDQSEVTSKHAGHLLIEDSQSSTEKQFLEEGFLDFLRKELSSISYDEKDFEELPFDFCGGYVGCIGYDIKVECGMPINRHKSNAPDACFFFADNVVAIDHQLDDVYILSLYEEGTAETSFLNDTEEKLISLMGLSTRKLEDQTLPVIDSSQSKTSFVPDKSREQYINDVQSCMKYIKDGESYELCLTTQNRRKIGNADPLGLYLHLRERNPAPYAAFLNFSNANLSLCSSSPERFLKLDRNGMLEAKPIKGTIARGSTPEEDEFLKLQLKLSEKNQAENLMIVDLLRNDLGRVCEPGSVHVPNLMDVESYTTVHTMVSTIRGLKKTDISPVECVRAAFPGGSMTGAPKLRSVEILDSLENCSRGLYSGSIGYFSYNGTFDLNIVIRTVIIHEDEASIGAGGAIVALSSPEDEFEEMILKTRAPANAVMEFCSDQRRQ
# Assay: pABA formation in cell extract, coupled to E. coli PabC (ADC lyase), HPLC with fluorescence detection
# Format: biochemical
# Details: E. coli PabC extract added, 37 °C, 1 h
SMILES,"pABA formation in cell extract, coupled to E. coli PabC (ADC lyase), HPLC with f (glutamine as amino donor)","pABA formation in cell extract, coupled to E. coli PabC (ADC lyase), HPLC with f (chorismate as co-substrate)"
C=C(O[C@@H]1C=C(C(=O)O)C=C[C@H]1O)C(=O)O [chorismate],Arabidopsis PabAa-PabAb formed pABA only if PabAc was added,–
NC(=O)CC[C@H](N)C(=O)O [glutamine],–,Arabidopsis PabAa-PabAb formed pABA only if PabAc was added
